Measurements from article PMC5656322, “BAK1 is involved in AtRALF1-induced inhibition of root cell expansion” (PLoS Genetics, 2017).
Where no end group is shown, it is not given here.

What was measured:
[1] = tested on: Arabidopsis seedlings, primary root; experiment: Root growth inhibition assay, liquid medium, 24-well plates; assay type: in vivo, Arabidopsis thaliana; details: 10 μM, 2 days
Protocol: (A) and (B) Arabidopsis seedlings (2 days old) were treated with 10 μM AtRALF1 or water (H20) for 2 days. The values are the mean ± SD of at least 25 seedlings. Triple asterisks indicate P < 0.01 (Student’s t test); ns, not significant. (C) Four-day-old seedlings were transferred to media containing different concentrations of AtRALF1, and the primary root length was measured after 8 days of treatment. The data represent the mean value ± SD of 30 seedlings. […] Representative Arabidopsis seedlings after 8 days of treatment with AtRALF1 are shown below. Seedlings were arranged on plates after the treatment for imaging. Scale bars, 1 cm. (D) Two-day-old seedlings were treated with 10 μM AtRALF1 or water for 2 days, and root cell length was measured after 2 days of treatment. Cells from the root endodermis in the differentiation zone were measured. The values are the mean ± SD of approximately 150 cells. Triple asterisks indicate P < 0.01 (Student’s t test); ns, not significant.
Aliquots of 1 ml of medium containing seeds were distributed into 24-well plates. The peptides (10 μM) were added after 2 days, and the root length was measured 2 days after treatment. To maximize root growth, the seeds were germinated in vertical plates. […] The root length was measured 8 days after treatment unless stated otherwise. Control plants were grown under identical conditions in a peptide-free medium. Quantitative data were obtained as previously described. The experiments were repeated at least 3 times using independent biological replicates with similar results. The data from one representative experiment are shown. For cell length measurements, AtRALF1 peptide (10 μM) was added after 2 days of germination, and the cell length was measured after 2 days of treatment. The cell wall was stained with a 1 mg ml^-1 propidium iodide solution (Sigma) in the dark for 15 min and washed twice with water. Cells of the endodermis of the root differentiation zone were imaged and measured using confocal microscopy (Olympus FV1000). Approximately 30 plants from each genetic background and at least 5 cells per root were measured. The wavelengths for excitation and emission were 555 and 655 nm, respectively. Image processing was completed using the Olympus FluoView software.
Arabidopsis seedlings (2-days-old) were treated with 10 μM AtRALF1 or water (H20) for 2 days. The values are the mean ± SD of at least 25 seedlings. Triple asterisks indicate P < 0.01 (Student’s t test); ns, not significant. (PDF) Click here for additional data file.
Supplementary file pgen.1007053.s002.pdf: S2 Fig Loss-of-function bak1 mutants are sensitive to the inhibitory activity of AtRALF23/34 on root growth. Arabidopsis seedlings (2-day-old) were treated with 10 μM RALF1(9–49), RALF1(I6A), AtRALF1, AtRALF23 and AtRALF34 or water (H20) for 2 days. The values are the mean ± SD of at least 20 seedlings. […] (PDF) Click here for additional data file.

[2] = tested on: intact Arabidopsis seedlings; experiment: Binding assay with acridinium-labeled AtRALF1, intact seedlings; parameters: species or system Arabidopsis thaliana; details: for competition of acriAtRALF1 binding: 10-fold excess of unlabeled peptide
Protocol: (A) Whole seedlings (5 days old) were treated for 15 min with acriAtRALF1 (acriR1), acriR1 and an excess of unlabeled AtRALF34 (R34), RALF1(9–49) [(R-9-49)], or AtRALF1 (R1), as indicated. The values are the mean ± SD of two measurements (5 seedlings each). (B) Microsomal fractions from wild-type and bak1 mutants were incubated for 15 min with acriAtRALF1 (acriR1), with acriR1 and an excess of unlabeled RALF1(9–49) [(R-9-49)], or with AtRALF1 (R1), as indicated. The values are the mean ± SD of two measurements. The proportions of labeled: unlabeled proteins are shown in parentheses. Single and triple asterisks indicate P < 0.1 and P < 0.01 (Student’s t test).
Arabidopsis seedlings were grown for 5 days on vertical plates. Roots were homogenized in extraction buffer [300 mM sucrose, 100 mM Tris-HCl pH 7.5, 25 mM EDTA, 25 mM NaF, 1 mM Na2MoO4, 1 mM PMSF and protease inhibitor cocktail (Roche), adjusted to pH 6.2], and the homogenate was spun at 2,000 x g for 10 min at 4 °C. The supernatant was recovered and centrifuged at 100,000 x g for 50 min at 4 °C to precipitate the microsomal pellet. The pellet was resuspended in the extraction buffer plus 0.5% Triton-X. Seedlings or microsomal fractions were placed in 200 μl of medium and incubated with 7 nM acridinium-labeled peptide (acriAtRALF1 or acriAtRALF34) and different concentrations of AtRALF1, AtRALF34 or RALF1(9–49) for 15–20 min at 4 °C on a shaker. After incubation, the seedlings or microsomal fractions were washed three times with the same medium. Unless indicated otherwise, five entire seedlings and approximately 10 ng of microsomal fractions were used per treatment. The resulting luminescence emissions from the acridinium were measured using a microplate reader (Biotec ELx 800) at 2 s after injecting 50 μl of a solution containing 20 mM H2O2 in 0.1 M NaOH. These experiments were repeated at least three times using independent biological replicates. Duplicates were used for each concentration or treatment. The data shown are from one representative experiment.
Supplementary file pgen.1007053.s017.pdf: S17 Fig Analyses of acridinium-labeled AtRALF1 (acriAtRALF1) and binding of acriAtRALF1 in bak1-4 and fer4 mutants. (A) The Ca^2+ mobilization assay comparing the acriAtRALF1 activity with the AtRALF1 peptide. A total of 20 time-points per treatment were measured over 160 sec and summed. The results are the means ± SD of two measurements. (B) acriAtRALF1 binding in whole seedlings and only in roots of Arabidopsis. The roots were excised just before measurements. Ctr, seedlings treated with unlabeled AtRALF1. (C) Whole seedlings (5 days old) were treated for 20 min with acriAtRALF1 (acriR1), acriR1 and an excess of unlabeled AtRALF1 (R1), as indicated. The values are the mean ± SD of three measurements (5 seedlings each). The proportions of labeled: unlabeled proteins are shown in parentheses. Triple asterisks indicates P < 0.001 (Student’s t test). (PDF) Click here for additional data file.
Supplementary file pgen.1007053.s018.pdf: S18 Fig Binding of acridinium-labeled AtRALF1 and AtRALF34 to intact Arabidopsis seedlings. (A) bak7 seedlings (5 days old) were treated for 15 min with acriAtRALF1 (acriR1), acriR1 and an excess of unlabeled AtRALF1 (R1), as indicated. (B) bak1 seedlings (5 days old) were treated for 15 min with acriAtRALF34 (acriR34), acriR34 and an excess of unlabeled AtRALF34 (R34) or AtRALF1 (R1), as indicated. The proportions of labeled: unlabeled proteins are shown in parentheses. The values are the mean ± SD of two measurements (5 seedlings each). (PDF) Click here for additional data file.

[3] = tested on: cell suspensions; details: cited from earlier work

Row | Substance | activity of negative control peptides on root growth [1] | competition of acriAtRALF1 binding ([2]; bak1 mutants) | competition of acriAtRALF1 binding ([2]; wild-type seedlings, 7 nM acriAtRALF1, 15 min, 4 °C) | root growth inhibition ([1]; bak1-1 and bak1-3 mutants) | sensitivity to root growth inhibition ([1]; bak1-4 complemented with pBAK1:BAK1) | root growth inhibition ([1]; bri1-301, bsk3-2, sud1, bes1-D, bzr1-D, BRI OX, DWF4 OX lines) | sensitivity to root growth inhibition ([1]; loss-of-function bak1 mutants (bak1-4)) | root growth inhibition ([1]; serk1, serk2, serk4 (bak7), serk5 (bak8) mutants) | reduction of acriAtRALF1 binding ([2]; bak1-1, 10-fold excess of AtRALF1) | acriAtRALF1 binding reduced to ([2]; bak1-1, 100- or 500-fold excess of AtRALF1) [%] | reduction of acriAtRALF1 binding ([2]; bak1-3, 10-fold excess of AtRALF1) [%] | acriAtRALF1 binding reduced to ([2]; bak1-3, 100- or 500-fold excess of AtRALF1) [%] | reduction of acriAtRALF1 binding ([2]; bak1-4, 10-fold excess of AtRALF1) [%] | acriAtRALF1 binding reduced to ([2]; bak1-4, 100- or 500-fold excess of AtRALF1) [%] | share of AtRALF1 binding due to BAK1 ([2]; intact roots) | reduction of acriAtRALF1 binding ([2]; wild-type seedlings, 10-fold excess of unlabeled AtRALF1) [%] | reduction of acriAtRALF1 binding ([2]; wild-type seedlings, 100-fold excess of AtRALF1, printed "up to") [%] | further reduction of acriAtRALF1 binding ([2]; wild-type seedlings, 500-fold excess of AtRALF1) | alkalinization of the extracellular media ([3]; ref [1],[11]) | alkalinization of the extracellular medium ([3]; ref [5])
1 | RALF1(9–49): inactive AtRALF1 peptide which has a deletion of the first 8 amino acids (QSLKRNSVPCSRRGASYYNCQNGAQANPYSRGCSKIARCRS; ends and bridges not checked; cysteine pairing not given here; UniProt Q9SRY3 80-120, looked up, fragment) | inactive | did not reduce the binding in the mutant backgrounds | could not be competed out | – | – | – | – | – | – | – | – | – | – | – | – | – | – | – | – | –
2 | AtRALF1: root-specific RALF isoform in Arabidopsis; recombinant peptide hormone produced in E. coli (ATTKYISYQSLKRNSVPCSRRGASYYNCQNGAQANPYSRGCSKIARCRS; ends and bridges not checked; cysteine pairing not given here) | – | – | – | exhibited no effect | recovered the sensitivity to the inhibitory effect of AtRALF1 treatment | exhibited root growth inhibition by AtRALF1 | insensitive to the inhibitory activity of AtRALF1 on root growth | inhibited the root growth | approximately 32% | 54 | ~35 | 63 | ~33 | 61 | approximately 30% | 24 | 59 | No further reduction was observed | induces a rapid alkalinization of the extracellular media of cell suspensions | alkalinizes the extracellular medium of cell suspensions
